Where only a bound is given, the exact number is not on record here.

The values that follow come from EPA's ToxValDB 9.5 (doi:10.2903/j.efsa.2014.3817).

The subject of series [1] is Canidae. The settings on record: chronic; duration: 1 years; oral; Dog Other; clinical chemistry.
Series [2] concerns Anas platyrhynchos. The settings on record: acute; oral; unspecified; mortality.
The test system of series [3] is Colinus virginianus. Conditions: reproduction developmental.
For series [4], the system named is Daphnia magna. The settings on record: chronic/long-term; duration: 21 days; reproduction.
The subject of series [5] is Apis mellifera. Conditions: acute, mortality.
Series [6] relates to Folsomia candida. The settings on record: chronic/long-term.
Series [7] deals with Rattus norvegicus.
The subject of series [8] is Oryctolagus sp. The settings on record: reproduction developmental; histopathology: nonneoplastic.
Series [9] deals with Zea sp. Conditions: not reported; seedling emergence.
The subject of series [10] is Oncorhynchus mykiss. The settings on record: chronic/long-term; duration: 90 days; other.
Series [11] concerns Tagia sp.
Series [12] relates to Typhlodromus pyri. Description: LR50; higher = less toxic. The settings on record: not reported; mortality.
Series [13] has as its system Aphidius rhopalosiphi. Description: LR50; higher = less toxic. The settings on record: not reported; mortality.

As a reminder, the NOAEL is the highest dose or exposure tested at which no adverse effect was seen. Consider `CC1=NNC(=O)N(/N=C/c2cccnc2)C1` [Pymetrozine], for which the NOAEL in series [1] is 0.57 mg/kg-day; in series [7] (reproduction developmental, reproduction) it was ≥ 110 mg/kg-day; in series [7] (subchronic, duration: 90 days, oral, clinical chemistry), 33 mg/kg-day; in series [8], 10 mg/kg-day. The LD50 in series [2] is ≥ 2000 mg/kg-day; in [5] (dermal), > 100 µg/piece; in [5] (oral, unspecified) it was > 62.7 µg/piece; in series [7] (acute, mortality), 3590 mg/kg-day. Besides, in series [3], the NOEL came to 21.8 mg/kg-day. Also, the NOEC in series [4] is 0.025 mg/L; in series [6] it was 1000 mg/kg; in series [9], 150 g/ha; in series [10], 11.7 mg/L; in series [11] (chronic/long-term, duration: 8 weeks), 0.00139 g/ha. The LC50 in series [11] (acute, duration: 14 days, mortality) is 1100 mg/kg. In addition, the LR50 in [12] was > 1200 g/ha; in [13], 75 g/ha.
